Molecules are shown by their SMILES. Where “and” joins values, the source holds several entries; their conditions need not be identical. Equal entries are not always repeated.

Results on seven compounds are retold here after article PMC4908816 (Molecular microbiology, 2016).

Assay [1] deals with R388-mediated conjugation. To be noted: cited from earlier work; for inhibition of bacterial conjugation: ref Getino et al., 2015; for inhibition of bacterial conjugation in vivo assays: ref Fernández-Lopez et al., 2005.
For assay [2], the target named is T1, TrwD (Escherichia coli, UniProt O50338). Briefly: ATP hydrolysis assay. To be noted: for inhibition (reduction) of TrwD ATPase activity: 50 μM fatty acid; for K0.5 ATP of TrwD in the presence of fatty acid / mechanism of inhibition of TrwD ATP hydrolysis: 21 μM linoleic acid or 30 μM 2-HDA; for K0.5 ATP of TrwD in the presence of fatty acid: 44 μM in the absence of fatty acids; for mechanism of inhibition of TrwD ATP hydrolysis: increasing ATP; for effect on Vmax of TrwD ATP hydrolysis: compound at its Ki[app] (21 μM linoleic acid, 30 μM 2-HDA). The assay is classed as biochemical, conjugative plasmid R388.
T1 sequence (O50338 1-358): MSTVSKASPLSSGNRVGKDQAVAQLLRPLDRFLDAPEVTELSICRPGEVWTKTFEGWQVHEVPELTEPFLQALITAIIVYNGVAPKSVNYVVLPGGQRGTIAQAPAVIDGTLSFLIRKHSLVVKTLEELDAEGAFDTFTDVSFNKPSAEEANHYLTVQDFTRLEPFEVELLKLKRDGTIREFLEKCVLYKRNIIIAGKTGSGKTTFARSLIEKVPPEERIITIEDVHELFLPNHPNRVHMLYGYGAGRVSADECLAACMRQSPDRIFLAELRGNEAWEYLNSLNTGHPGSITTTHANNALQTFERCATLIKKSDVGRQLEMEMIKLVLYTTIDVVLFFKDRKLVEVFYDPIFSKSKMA

Assay [3] deals with R388 transfer (bacterial conjugation). Nature of the assay: High-throughput conjugation assay. The assay is classed as cell-based. As to conditions: 500 μM compound (Fig. 3A), E. coli DH5α donor, BL21(DE3) recipient.
In assay [4] the target is T1, TrwD. Nature of the assay: Partial proteolysis of TrwD by papain. Also noted: species or system conjugative plasmid R388. As to conditions: 1:10 to 1:100 TrwD:2-HDA or 1:100 TrwD:palmitic acid molar ratio; 90 min, 25 °C.
In a further assay the target is TrwB (Escherichia coli, UniProt Q04230). Nature of the assay: ATP hydrolysis assay. To be noted: 50 μM linoleic acid; ATPase 2 μM. It counts as biochemical, conjugative plasmid R388.
A further assay has as its target TrwK (Escherichia coli, UniProt O50330). Nature of the assay: ATP hydrolysis assay. It counts as biochemical, conjugative plasmid R388. As to conditions: 50 μM linoleic acid; ATPase 2 μM.
The subject of the next assay is TrwC. Briefly: ATP hydrolysis assay. It counts as biochemical, conjugative plasmid R388. To be noted: 50 μM linoleic acid; ATPase 2 μM.

In general, Ki refers to the dissociation constant of the complex between target and ligand, obtained from inhibition or displacement. A high value points to lower affinity. With `CCCCCCCCCCCCCCCC#CC(=O)O` [2-ODA, 2-octadecynoic acid], the figures for the “inhibition of bacterial conjugation” value in assay [1] and in assay [3] were “more effective in inhibiting bacterial conjugation” and “efficient conjugation inhibitors”, respectively. This compound gave a Ki on TrwD [2] of 29.8 ± 4.1 µM.
For the compound `CCCCCCCCCC#CCCC#CC(=O)O` [2,6-HDA, 2,6 hexadecadiynoic acid], the “inhibition of bacterial conjugation” value in assay [1] is “more effective in inhibiting bacterial conjugation”; in assay [3], “efficient conjugation inhibitors”. At TrwD [2], this compound came in with a Ki of 43.8 ± 2.8 µM.
For `CCCCCCCC/C=C\CCCCCCCC(=O)O` [oleic acid], the “inhibition of bacterial conjugation in vivo assays” value (“inhibition … in vivo assays” for short) in assay [1] is “effective inhibitors of bacterial conjugation”. The “inhibition (reduction) of TrwD ATPase activity” value (from here on “inhibition (reduction)”) against TrwD [2] (TrwD 2 μM) is reported as “more than 90%”.
Consider `CCCCCCCCCCCC(=O)O` [Lauric acid], for which, in assay [1], the “inhibition … in vivo assays” value is reported as “unable to inhibit significantly”. Further, the “inhibition (reduction)” value on TrwD [2] (TrwD 2 μM) is given as “no inhibition was observed”.
As for `CCCCCCCCCCCCCCCC(=O)O` [Palmitic acid], the “inhibition … in vivo assays” value in assay [1] is “unable to inhibit significantly”. The “inhibition (reduction)” value at TrwD [2] (TrwD 2 μM) is on record as “no inhibition was observed”. The “susceptibility of TrwD to papain digestion” value at TrwD [4] is listed as “did not affect the susceptibility”.
For the compound `CCCCCCCCCCCCCC#CC(=O)O` [2-HDA, 2-hexadecynoic acid], the “inhibition of bacterial conjugation” value in assay [1] is recorded as “more effective in inhibiting bacterial conjugation”. On TrwD [2], the affinity, expressed as Ki, was 29.7 ± 2.1 µM; the “mechanism of inhibition of TrwD ATP hydrolysis” value is on record as “non-competitive”; the “effect on Vmax of TrwD ATP hydrolysis” value is reported as “reduced by half”. At TrwD [2] (TrwD 2 μM), the “K0.5 ATP of TrwD in the presence of fatty acid” value was found to be 66 µM. The “Kd ADP of TrwD in the presence of fatty acid” value on TrwD [2] (30 μM 2-HDA, TrwD 2 μM, control without 2-HDA 45.1 ± 4.1 μM) was 51 µM and 51.7 ± 9.8 µM. For the same compound, the “susceptibility of TrwD to papain digestion” value on TrwD [4] is recorded as “high susceptibility to papain degradation”.
As for `CCCCC/C=C\C/C=C\CCCCCCCC(=O)O` [linoleic acid], the “inhibition … in vivo assays” value in assay [1] was “effective inhibitors of bacterial conjugation”. Further, the “effect on TrwB ATPase activity” value at TrwB was “no significant effect”. For the same compound, the “effect on TrwK ATPase activity” value on TrwK was “no significant effect”. At TrwD [2], the Ki worked out at 20.9 ± 1.6 µM, the “mechanism of inhibition of TrwD ATP hydrolysis” value was “non-competitive” and the “effect on Vmax of TrwD ATP hydrolysis” value is “reduced by half”. In addition, the “K0.5 ATP of TrwD in the presence of fatty acid” value on TrwD [2] (TrwD 2 μM) came out at 44 µM. Also, the “effect on TrwC ATPase activity” value in the assay on TrwC is “no significant effect”.
